Reference: US6525042B1 (Daiichi Pharmaceutical Co., Ltd., priority 1997, dated 2003)
Each block holds one compound with its values, some of them ahead of it.

Key:
human FXa [1] = biological target: T1, human FXa (Homo sapiens, UniProt P00742); experiment: FXa inhibitory action (IC50), reaction rate method; type: biochemical; settings: room temperature, read-out: FXa 50% inhibitory concentration
T1 construct: purchased Cosmobio-ERL HFXa-1011
Procedure: (§1) Measurement of FXa Inhibitory Action (IC50)
In a 96-well microtiter plate, 10 μl of a sample solution, 40 μl of a 100 mM tris −200 mM sodium chloride −0.2% BSA (pH: 7.4) buffer and 10 μl of 0.05 U/ml human FXa (“Cosmobio-ERL HFXa-1011”, dissolved in and diluted with a measuring buffer) were poured in portions, followed by the addition of […] of S2222 (product of Chromogenix). An increase (mOD/min) in the absorbance at 405 nm was measured at room temperature. From the below-described equation, an inhibitory ratio % of each sample was determined. On a logarithmic probability paper, the final concentration of the sample and inhibitory ratio % were plotted along the abscissa and the ordinate, respectively, whereby a 50% inhibitory concentration (IC50) was determined.
(§2) Inhibitory ratio (%)=(1−OD of sample÷OD of control)×100

Plasma [2] = experiment: Coagulation extending action (prothrombin time) in plasma; type: biochemical
Procedure: Measurement of Coagulation Extending Action (Measurement of Prothrombin Time)
Plasma (20 μl) and 20 μl of a sample solution were mixed. To the resulting mixture, […] of cynplastin (product of Organon Teknika) were added and the coagulation time was measured. The concentration of the sample (CT2) at which the coagulation time of the plasma was increased twice was found and it was designated as an index of anticoagulant action.

human thrombin [3] = biological target: T2, human thrombin (Homo sapiens, UniProt P00734); experiment: Thrombin inhibitory action (IC50), end point method; type: biochemical; settings: 37° C. for 10 minutes, read-out: thrombin 50% inhibitory concentration
T2 construct: purchased Sigma Chemical
Procedure: (§3) Measurement of Thrombin Inhibitory Action (IC50)
A sample solution (100 μl), 280 μl of a 100 mM tris −200 mM sodium chloride (pH 7.4) buffer and 100 μl of 1 mM S2238 (Chromogenix) solution were mixed and heated at 37° C. To the resulting mixture, 20 μl of 1 U/ml human thrombin (Sigma Chemical, dissolved in and diluted with a measuring buffer) were added, followed by heating at 37° C. for 10 minutes. To the resulting mixture, 100 μl of 1M citric acid were added and then, the absorbance at 405 nm was measured. The mixture to which only the diluting solvent was added instead of the sample was used as a blank, while the mixture to which 1M citric acid was added prior to the addition of thrombin was used as a control. The sample concentration (IC50) at which 50% of thrombin activity was inhibited was found and it was designated as an index of thrombin inhibitory action.

human Factor Xa = human Factor Xa (Homo sapiens, UniProt P00742); experiment: Oral administration test: anti-FXa activity in the plasma; type: in vivo; settings: rat, 30 mg/kg, one hour after the administration
Procedure: (§4) Test of Oral Administration
(§5) A sample was dissolved or suspended in a 0.5% (w/v) methyl cellulose solution and the resulting solution or suspension was orally administered (10 ml/kg) to a 8 to 11 week-old rat (Wistar male rat (Nippon SLC Co., Ltd.)) which had been fasted overnight. After administration of the sample, the blood to which 1/10 part by weight of 3.13% (w/v) sodium citrate had been added was collected from the cervical vein. The rat was awakened except during the blood collection. Feeding was re-started 6 hours after the blood collection. From each blood sample, the plasma was separated by centrifugal separation and anti-FXa activity in the blood and prothrombin time extending action were measured.
2-1) Measurement of Anti-FXa Activity in the Plasma
In a 96-well plate, 5 μl of the plasma was poured in portions, followed by the addition of 55 μl of a 8:1:2 mixture of 100 mM tris −200 mM sodium chloride −0.2% BSA (pH 7.4) buffer, water and 0.1 U/ml human Factor Xa solution (dissolved in and diluted with a measuring buffer) and 40 μl of 750 μM S-2222. After stirring for 10 seconds in a plate mixer, an increase (mOD/min) of the absorbance at 405 nm was measured at room temperature. The inhibitory ratio was calculated as follows:
An inhibitory ratio (%)=(1−OD of sample÷OD of control on average relative to blood-collecting time of sample)×100

plasma [4] = experiment: Oral administration test: coagulation extending action (prothrombin time); type: in vivo; settings: rat, 30 mg/kg, one hour after the administration
Procedure: as §4, §5
2-2) Measurement of Coagulation Extending Action in Oral Administration (Measurement of Prothrombin Time)
To 20 μl of the plasma, 40 μl of cynplastin (Organon Teknika/USA) were added and the coagulation time was measured. The ratio of the prothrombin time after the administration of the sample relative to the prothrombin time before the administration of the sample was designated as an index of the coagulation extending action.

human FXa [5] = biological target: T1, human FXa; experiment: FXa inhibitory action (IC50), end point method; type: biochemical; settings: 37° C. for 15 minutes, read-out: FXa 50% inhibitory concentration
Procedure: as §1
A sample solution (100 μl), 280 μl of a 100 mM tris −200 mM sodium chloride (pH 7.4) buffer and 100 μl of a 1 mM S2222 (Chromogenix Corp.) solution were mixed and heated at 37° C. To the resulting mixture, 20 μl of 0.625 U/ml human FXa (“Cosmobio-ERL HFXa-1011”, dissolved in and diluted with a measuring buffer) were added, followed by heating at 37° C. for 15 minutes. To the resulting mixture, 100 μl of 1M citric acid were added and then, the absorbance at 405 nm was measured. The mixture to which only the diluting solvent for the sample was added instead of the sample was used as a blank, while the mixture to which 1M citric acid was added prior to the addition of FXa was used as a control. The concentration of the sample (IC50) at which 50% of FXa activity was inhibited was determined and it was designated as an index of FXa inhibitory action.

human thrombin [6] = biological target: T2, human thrombin; experiment: Thrombin inhibitory action (IC50), reaction rate method; type: biochemical; settings: room temperature, read-out: thrombin 50% inhibitory concentration
Procedure: as §3
In a 96-well microtiter plate, 10 μl of a sample solution, 40 μl of a 100 mM tris −200 mM sodium chloride −0.2% BSA (pH: 7.4) buffer and 10 μl of 4 U/ml human thrombin (Sigma Chemical, dissolved in and diluted with a measuring buffer) were poured, followed by the addition of 40 μl of 500 μM S2266 (product of Chromogenix). An increase (mOD/min) in the absorbance at 405 nm was measured at room temperature. From the below-described equation, an inhibitory ratio % of each sample was determined. On a logarithmic probability paper, the final concentration of the sample and inhibitory ratio were plotted along the abscissa and the ordinate, respectively, whereby a 50% inhibitory concentration (IC50) was found.
as §2

human thrombin [7] = biological target: T2, human thrombin; experiment: Measurement of Ki value against thrombin; type: biochemical; settings: Dixon plot
Procedure: Measurement of Ki Value Against Thrombin
In a 96-well microtiter plate, 5 μl of a sample solution, 5 μl of purified water, 40 μl of a 100 mM tris −200 mM sodium chloride −0.2% BSA (pH: 7.4) buffer and 10 μl of 5 U/ml human thrombin (product of Sigma Chemical, dissolved in and diluted with a measuring buffer) were poured in portions, followed by the addition of 40 μl of S2226 (product of Chromogenix, final concentration: 50, 100, 200 and 400 μM). […] The median of six values available by solving simultaneous equations was designated as a Ki value.

human FXa [8] = biological target: T1, human FXa; experiment: Measurement of Ki value against FXa; type: biochemical; settings: substrate S2222, Dixon plot
Procedure: Measurement of Ki Value Against FXa
In a 96-well microtiter plate, 5 μl of a sample solution, 5 μl of purified water, 40 μl of a 100 mM tris −200 mM sodium chloride −0.2% BSA (pH: 7.4) buffer and 10 μl of 0.05 U/ml human FXa (product of Enzyme Research, dissolved in and diluted with a measuring buffer) were poured, followed by the addition of 40 μl of S2222 (product of Chromogenix, final concentration: 75, 150, 300 and 600 μM). […] The median of six values available by solving simultaneous equations was designated as a Ki value.

[9] = system: tissue thromboplastin-derived rat DIC model; experiment: Anti-thrombus effects in a tissue thromboplastin-derived rat DIC model; type: in vivo; settings: oral 30 mg/kg, tissue thromboplastin one hour after the sample
Procedure: Testing Method of Anti-thrombus Effects in a Tissue Thromboplastin-derived Rat DIC Model
A rat was anesthetized with halothane. After the collection of the blood (for measurement of the number of platelets, anti-FXa activity and TAT) from its cervical vein by using 1/10 part by weight of 3.13% (w/v) sodium citrate, the sample was administered orally. At an appropriate time after the administration, the rat was intraperioneally anesthetized (1 mg/kg) with Nembutal (50 mg/ml pentobarbital sodium, Abott Laboratories), followed by intravenous drip of 0.2 U/ml of tissue thromboplastin (Thromboplastin C plus, Dade Diagnostics of P. R. Inc.,) from the femoral vein for one minute at a rate of 2.5 to 3.0 ml/kg/min. The blood was collected (for measuring the number of platelets and anti-FXa activity) from the cervical vein 10 minutes after the intravenous drip and the blood was collected (for measuring TAT) from the cervical vein 20 minutes after the blood collection. The number of platelets, anti-FXa activity in the plasma and TAT concentration of each blood sample were measured. The number of the platelets was measured by an automatic cytometer, while the anti-FXa activity in the plasma was measured in a similar manner to that described in Test 7.
For the measurement of TAT (Thrombin-anti Thrombin=complex), EnzygnostR TAT micro kit (Boering Verke) was employed.

T1 sequence (P00742 235-488 limits assumed): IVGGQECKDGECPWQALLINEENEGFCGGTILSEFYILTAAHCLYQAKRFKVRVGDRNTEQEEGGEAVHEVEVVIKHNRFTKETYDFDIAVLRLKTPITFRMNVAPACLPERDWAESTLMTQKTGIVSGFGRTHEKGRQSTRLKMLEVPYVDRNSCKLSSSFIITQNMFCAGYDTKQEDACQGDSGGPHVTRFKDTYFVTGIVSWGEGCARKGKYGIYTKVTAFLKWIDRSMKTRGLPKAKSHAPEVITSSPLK
T1 sequence (P00742 41-179 partner limits assumed): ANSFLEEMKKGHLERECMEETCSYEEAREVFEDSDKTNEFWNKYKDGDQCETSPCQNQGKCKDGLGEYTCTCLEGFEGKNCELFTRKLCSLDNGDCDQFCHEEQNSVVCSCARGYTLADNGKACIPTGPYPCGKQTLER
Sequence of human Factor Xa (P00742 235-488 limits assumed): as the sequence (P00742 235-488 limits assumed) above
Sequence of human Factor Xa (P00742 41-179 partner limits assumed): as the sequence (P00742 41-179 partner limits assumed) above

Compound: 2-[[4-[(6-Chloronaphthalen-2-yl)sulfonyl]piperazin-1-yl]carbonyl]-6,6-dimethyl-4,5,6,7-tetrahydrothiazolo[5,4-c]pyridinium iodide [Example 92]
IC50 (human FXa [1]): 7.8 nM
CT2 (concentration at which the coagulation time of the plasma was increased twice) (Plasma [2]): 0.35 µM
IC50 (human thrombin [3]): ≥ 200000 nM

Compound: O=C(c1ccc(-c2cc[n+]([O-])cc2)cc1)N1CCN(S(=O)(=O)c2ccc3cc(Cl)ccc3c2)CC1 [Example 6, 4-[4-[[4-[(6-Chloronaphthalen-2-yl)sulfonyl]piperazin-1-yl]carbonyl]phenyl]pyridine N-oxide]
IC50 (human FXa [5]): 125 nM

Compound: CC1Cc2nc(C(=O)N3CCN(S(=O)(=O)c4ccc5cc(Cl)ccc5c4)CC3C(N)=O)sc2CN1.Cl (stereo not shown) [Example 95, 2-Carbamoyl-4-[(6-chloronaphthalen-2-yl)sulfonyl]-1-[(6-methyl-4,5,6,7-tetrahydrothiazolo[5,4-c]pyridin-2-yl)carbonyl]piperazine hydrochloride]
anti-FXa action in the plasma [9]: apparent anti-FXa action in the plasma was recognized
decrease in the number of the platelets [9]: suppressed
increase in the TAT concentration [9]: suppressed

More lines, main results first:

anti-FXa activity in the plasma (human Factor Xa): 70%
Compound: Cl.O=C(C1CC=C(c2ccncc2)CC1)N1CCN(S(=O)(=O)c2ccc3cc(Cl)ccc3c2)CC1 (racemic) [Example 110, 1-[(6-Chloronaphthalen-2-yl)sulfonyl]-4-[[(1RS)-4-(pyridin-4-yl)-3-cyclohexene]carbonyl]piperazine hydrochloride]
extension of the prothrombin time (ratio after/before administration) (plasma [4]): 1.18 times

IC50 (human FXa [5]): 72 nM
IC50 (human thrombin [6]): 1900 nM
Compound: O=C(c1ccc(-c2cccc[n+]2[O-])cc1)N1CCN(S(=O)(=O)c2ccc3cc(Cl)ccc3c2)CC1 [Example 19, 2-[4-[[4-[(6-Chloronaphthalen-2-yl)sulfonyl]piperazin-1-yl]carbonyl]phenyl]pyridine N-oxide]

Ki (human thrombin [7]): 3300 nM
Ki (human FXa [8]): 10.9 nM
Compound: C[N+]1([O-])CCc2nc(C(=O)N3CCN(S(=O)(=O)c4ccc5cc(Cl)ccc5c4)CC3)sc2C1 (stereo not shown) [Example 93]
